Experimental data reported in patent US20250134861A1, “COMPOSITIONS COMPRISING 5-METHOXY-N,N-DIMETHYLTRYPTAMINE (5-MEO-DMT) FOR USE IN TREATING MENTAL DISORDERS” (GH RESEARCH IRELAND LIMITED, priority 2019, published 2025).

Legend:
[1] = test system: patients with treatment-resistant major depressive disorder; test: Clinical trial of inhaled 5-MeO-DMT in TRD patients: intensity of the psychedelic effects (MEQ30, ASC, PPEQ); assay type: in vivo, human; conditions: single 12 mg inhaled dose
Experimental: The following questionnaire is applied in situations where the acute psychedelic experience after treatment with 5-MeO-DMT needs to be quantified. At the end of relevant treatment sessions, the patient is handed a paper form and asked to rate the degree to which at any time during that session they experienced any of the phenomena listed below using the scale listed below. The MEQ30 is then computed and the occurrence of a peak psychedelic experience is then evaluated as described under scoring instructions.
The score for each individual subscale is computed by calculating the average score (from the scale of 0 to 5) for the phenomena belonging to the subscale as listed below.
The MEQ30-total score is computed by taking the average response to all phenomena. Patients or probands with a score≥60% of the maximum possible score on each of the four subscales of the MEQ30 are considered to have experienced a “peak psychedelic experience”.
(§1) The Peak Psychedelic Experience Questionnaire (PPEQ) has been developed by the inventor as an improved alternative to the oceanic boundlessness dimension of the ASC and the MEQ30 to allow a simpler and quicker assessment of the intensity of a psychedelic experience.

healthy volunteers [2] = test: Clinical trial of inhaled 5-MeO-DMT in healthy volunteers: intensity of the psychedelic effects (PPEQ); assay type: in vivo, human
Experimental: (§2) The trial consisted of two parts: Part A, where single doses of 5-MeO-DMT dosage amounts of 2 mg, 6 mg, 12 mg and 18 mg were administered; and Part B, where an initial 5-MeO-DMT dosage amount of 6 mg was administered, and then, unless the participant had already experienced a peak psychedelic experience based on the PPEQ or the supervising physician had decided that further dose increases were inappropriate based on observed side effects, further subsequent dosage amounts of 12 mg and 18 mg were administered with about 3 hours in between each administration. […] Pharmacokinetic analysis of 5-MeO-DMT and bufotenine plasma levels was performed at 1 hour and 3 hours after drug administration in Part A, and at 3 hours after drug administration in Part B.
18 participants were recruited into Part A of the study and 4 participants were recruited into Part B. 9 Participants were female and 13 participants were male. Median age was 29 years (range: 19 to 42 years). […]
as §1, with “experience. The PPEQ is comprised of three questions, all to be scored from 0 to 100 by marking a Visual Analogue Scale between 0 and 100 mm: • 1. […]” for “experience.”

[3] = test system: patients with treatment-resistant major depressive disorder; test: Clinical trial of inhaled 5-MeO-DMT in TRD patients: safety and tolerability; assay type: in vivo, human
[4] = test system: respondents with self-reported psychiatric conditions; conditions: majority of respondents; ritual or recreational use; observational; cited from earlier work
[5] = Clinical trial of inhaled 5-MeO-DMT in healthy volunteers: 5-MeO-DMT and bufotenine plasma levels; assay type: in vivo, human
Experimental: as §2

healthy volunteers [6] = test: Clinical trial of inhaled 5-MeO-DMT in healthy volunteers: safety and tolerability; assay type: in vivo, human
Experimental: as §2
18 participants were recruited into Part A of the study and 4 participants were recruited into Part B. 9 Participants were female and 13 participants were male. Median age was 29 years (range: 19 to 42 years). In Part A, 4 participants received 2 mg, 6 participants received 6 mg, 4 participants received 12 mg and 4 participants received 18 mg of 5-MeO-DMT. In Part B, 1 participant received 6 mg, 2 participants received 6 mg and then 12 mg and one participant received 6 mg, 12 mg and then 18 mg of 5-MeO-DMT.

[7] = both patients, single 12 mg inhaled dose
[8] = Part A, 2 mg single inhaled dose (n = 4), Administration day, possibly or probably related, mild
[9] = Part A, 6 mg single inhaled dose (n = 6), Administration day, possibly or probably related, mild
[10] = Part A, 6 mg single inhaled dose (n = 6), Day 1, possibly or probably related, mild
[11] = Part A, 18 mg single inhaled dose (n = 4), Administration day, possibly or probably related, mild
[12] = Part A, 18 mg single inhaled dose (n = 4), Day 1, possibly or probably related, mild
[13] = Part B, 12 mg (n = 3), after 6 mg, Administration day, possibly or probably related, mild

In the case of `COc1ccc2[nH]cc(CCN(C)C)c2c1` [5-MeO-DMT, 5-methoxy-N,N-dimethyltryptamine], the “PPE achieved (ASC: at least 60% of the maximum possible score of the Oceanic Boundlessness dimension)” value ([1]; Patient 1) was “Yes”, the “PPE achieved (MEQ30: at least 60% of the maximum possible score in each of the four subscales)” value ([1]; Patient 1) was “Yes” and the “PPE achieved (PPEQ Total Score of at least 75)” value ([1]; Patient 1) was “Yes”. For the same molecule, the “PPE achieved (ASC: at least 60% of the maximum possible score of the Oceanic Boundlessness dimension)” value ([1]; Patient 2) was “No”, the “PPE achieved (MEQ30: at least 60% of the maximum possible score in each of the four subscales)” value ([1]; Patient 2) was “Yes” and the “PPE achieved (PPEQ Total Score of at least 75)” value ([1]; Patient 2) was “Yes”. For the same molecule, the “Onset of the first psychedelic symptoms after the inhalation” value ([1]; both patients) was “within a few seconds”, the “Intensity of the psychedelic experience with dose escalation” value (healthy volunteers [2]; Part B, 6 mg, then 12 mg and 18 mg about 3 hours apart) was “increased with the increasing dosage amounts in all participants” and the “Onset of the first psychedelic symptoms after the inhalation” value (healthy volunteers [2]; all participants, 2 to 18 mg inhaled) was “within a few seconds”. The Reported adverse events ([3]; Patient 1, single 12 mg inhaled dose, Day 1) was “Headache, Flashback”, the Reported adverse events ([3]; Patient 1, single 12 mg inhaled dose, Day 7) was “Headache” and the Reported adverse events ([3]; Patient 1, single 12 mg inhaled dose, administration day) was “Dizziness”. For the same molecule, the Reported adverse events ([3]; Patient 2, single 12 mg inhaled dose, Day 1) was “Headache”, the Reported adverse events ([3]; Patient 2, single 12 mg inhaled dose, Day 7) was “None reported” and the Reported adverse events ([3]; Patient 2, single 12 mg inhaled dose, administration day) was “None reported”. The “Assessments of ECG, safety laboratory analyses, CADSS and cognitive tests (PVT, DSST)” value ([3]; both patients, ECG at 3 hours, laboratory at 3 hours and 7 days, CADSS at 3 hours, 1 day, 7 days, cognitive tests at 1 day and 7 days) was “unremarkable”, the “Changes in vital parameters” value ([3]; both patients, shortly after single 12 mg inhaled dose, no other noteworthy changes) was “temporary, not clinically relevant increase in heart rate and blood pressure” and the “Severity and course of reported adverse events” value [3, 7] was “mild, short-lasting and resolved spontaneously”. For the same molecule, the “Tolerability of the inhalation procedure” value [3, 7] was “well tolerated with no inhalation-related adverse events”, the “Self-perceived change of psychiatric symptoms (anxiety, depression, substance use problems, post-traumatic stress disorder)” value [4] was “perceived improvements in symptoms” and the 5-MeO-DMT plasma levels ([5]; Part A and Part B, 3-hour time point, LLOQ of the 5-MeO-DMT assay 0.014 ng/ml) was “reached the lower level of quantification (LLOQ)”. For the same molecule, the 5-MeO-DMT plasma levels ([5]; any dose in Part A, 1-hour timepoint) was “very low”, the “Evaluation of ECG, safety laboratory analyses, CADSS and cognitive tests (PVT, DSST, PMT)” value (healthy volunteers [6]; Part A and Part B) was “unremarkable” and the “Severity and course of reported adverse events” value (healthy volunteers [6]; Part A and Part B) was “all mild (except for one moderate event) and all resolved spontaneously”. For the same molecule, the Inhalation-related adverse events (healthy volunteers [6]; Part A and Part B, 2 to 18 mg inhaled) was “No inhalation-related adverse events”, the “Adverse events reported: Nausea” value (healthy volunteers [6]; [8]) was 2 and the “Adverse events reported: Tachycardia” value (healthy volunteers [6]; [8]) was 1. The “Adverse events reported: Vision blurred” value (healthy volunteers [6]; [8]) was 1, the “Adverse events reported: Anxiety” value (healthy volunteers [6]; [9]) was 1 and the “Adverse events reported: Headache” value (healthy volunteers [6]; [9]) was 1. The “Adverse events reported: Nausea” value (healthy volunteers [6]; [9]) was 1, the “Adverse events reported: Clumsiness” value (healthy volunteers [6]; [10]) was 1 and the “Adverse events reported: Feeling hot” value (healthy volunteers [6]; [10]) was 1. For the same molecule, the “Adverse events reported: Headache” value (healthy volunteers [6]; [10]) was 1, the “Adverse events reported: Anxiety” value (healthy volunteers [6]; Part A, 12 mg single inhaled dose (n = 4), Administration day, possibly or probably related, mild) was 1 and the “Adverse events reported: Heart rate increased” value (healthy volunteers [6]; Part A, 12 mg single inhaled dose (n = 4), Administration day, possibly or probably related, this event was moderate) was 1^1. For the same molecule, the “Adverse events reported: Headache” value (healthy volunteers [6]; [11]) was 1, the “Adverse events reported: Nausea” value (healthy volunteers [6]; [11]) was 1 and the “Adverse events reported: Abnormal dreams” value (healthy volunteers [6]; [12]) was 1. For the same molecule, the “Adverse events reported: Fatigue” value (healthy volunteers [6]; [12]) was 1, the “Adverse events reported: Hallucination” value (healthy volunteers [6]; [12]) was 1 and the “Adverse events reported: Hyperacusis” value (healthy volunteers [6]; [12]) was 1. For the same molecule, the “Adverse events reported: Insomnia” value (healthy volunteers [6]; [12]) was 1, the “Adverse events reported: Mental fatigue” value (healthy volunteers [6]; [12]) was 1 and the “Adverse events reported: Flashback” value (healthy volunteers [6]; Part A, 18 mg single inhaled dose (n = 4), Day 7, possibly or probably related, mild) was 1. The “Adverse events reported: Nausea” value (healthy volunteers [6]; Part B, 6 mg inhaled (n = 4), Administration day, possibly or probably related, mild) was 1, the “Adverse events reported: Fatigue” value (healthy volunteers [6]; [13]) was 1 and the “Adverse events reported: Head discomfort” value (healthy volunteers [6]; [13]) was 1. The “Adverse events reported: Headache” value (healthy volunteers [6]; [13]) was 1, the “Adverse events reported: Nausea” value (healthy volunteers [6]; [13]) was 1 and the Adverse events reported (healthy volunteers [6]; Part B, 18 mg (n = 1), after 12 mg and 6 mg, Administration day, Day 1 and Day 7) was “None reported”. The “Changes in vital parameters” value (healthy volunteers [6]; shortly after administration, no other noteworthy changes) was “temporary, not clinically relevant increase in heart rate and blood pressure”.
